Measurements as given in patent US8227613B2, “Heteroaryl carboxamide derivatives” (Hoffmann-La Roche Inc., priority 2008, dated 2012).

Biological target: T1, human chemokine receptor 2 isoform B (CCR2B) (Homo sapiens, UniProt P41597)
T1 construct: host or cells: CHO-K1 (CHOK1-CCR2B-A5)
T1 sequence (P41597 1-360 isoform P41597-2): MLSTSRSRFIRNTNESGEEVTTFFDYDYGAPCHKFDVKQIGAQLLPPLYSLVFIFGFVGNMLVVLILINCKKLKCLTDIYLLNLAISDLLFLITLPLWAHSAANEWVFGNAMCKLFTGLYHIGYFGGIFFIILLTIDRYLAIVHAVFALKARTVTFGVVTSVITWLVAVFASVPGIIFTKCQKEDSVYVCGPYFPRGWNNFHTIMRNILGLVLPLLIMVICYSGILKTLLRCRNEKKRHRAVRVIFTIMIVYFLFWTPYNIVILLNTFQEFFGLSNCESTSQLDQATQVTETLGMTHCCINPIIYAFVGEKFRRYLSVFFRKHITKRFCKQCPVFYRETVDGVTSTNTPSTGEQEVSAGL
Test: Calcium mobilization assay (FLIPR, MCP-1 stimulated CHOK1-CCR2B-A5 cells)
Type: cell-based
Details: 20 nM MCP-1, antagonist activity, read-out: IC50 (inhibitor concentration required for 50% inhibition of specific calcium increases)
Procedure: Calcium Mobilization Assay
CHOK1-CCR2B-A5 cells (from Euroscreen) stably overexpressing the human chemokine receptor 2 isoform B were cultured in Nutrient Hams F12 medium supplemented with 5% FBS, 100 U/ml penicillin, 100 μg/ml streptomycin, 400 μg/ml G418 and 5 μg/ml puromycin.
For the assay cells were grown overnight in 384-well black clear flat bottom polystyrene plates (Costar) at 37° C. at 5% CO2. After washing with DMEM, 20 mM Hepes, 2.5 mM probenecid, 0.1% BSA (DMEM assay buffer) cells were loaded with 4 μM Fluo-4 in the same DMEM assay buffer for 2 hours at 30° C. Excess dye was removed and cells were washed with DMEM assay buffer. 384-well compound plates were prepared with DMEM assay buffer/0.5% DMSO with or without various concentrations of test compounds. Usually compounds were tested for agonist and antagonist activity.
Test compounds were added to the assay plate and agonist activity was monitored as fluorescence for 80 seconds with a FLIPR (488 nm excitation; 510-570 nm emission; Molecular Devices). After 20-30 min. of incubation at 30° C., 20 nM MCP-1 (R&D; Roche) was added and fluorescence was monitored again for 80 seconds. Increases in intracellular calcium are reported as maximum fluorescence after agonist exposure minus basal fluorescence before exposure. Antagonist activity is indicated as inhibitor concentration required for 50% inhibition of specific calcium increases.

| IC50 [nM] | SMILES |
| --- | --- |
| 16 | COc1ccc(C(F)(F)F)cc1-c1cnc(C(=O)N2CCC(N3CCCC3)CC2)c(C)c1 [Example 33, [5-(2-Methoxy-5-trifluoromethyl-phenyl)-3-methyl-pyridin-2-yl]-(4-pyrrolidin-1-yl-piperidin-1-yl)-methanone] |
| 59 | Cc1cc(-c2ccc(F)c(C(F)(F)F)c2)cnc1C(=O)N1CCC(N2CCCC2)CC1 [Example 34, [5-(4-Fluoro-3-trifluoromethyl-phenyl)-3-methyl-pyridin-2-yl]-(4-pyrrolidin-1-yl-piperidin-1-yl)-methanone] |
| 560 | COc1ccc(-c2cnc(C(=O)N3CCC(N4CCCC4)CC3)c(C)c2)cc1C(F)(F)F [Example 35, [5-(4-Methoxy-3-trifluoromethyl-phenyl)-3-methyl-pyridin-2-yl]-(4-pyrrolidin-1-yl-piperidin-1-yl)-methanone] |
| 180 | Cc1cc(-c2cccc(C(F)(F)F)c2F)cnc1C(=O)N1CCC(N2CCCC2)CC1 [Example 36, [5-(2-Fluoro-3-trifluoromethyl-phenyl)-3-methyl-pyridin-2-yl]-(4-pyrrolidin-1-yl-piperidin-1-yl)-methanone] |
| 36 | Cc1cc(-c2cc(F)cc(C(F)(F)F)c2)cnc1C(=O)N1CCC(N2CCCC2)CC1 [Example 37, [5-(3-Fluoro-5-trifluoromethyl-phenyl)-3-methyl-pyridin-2-yl]-(4-pyrrolidin-1-yl-piperidin-1-yl)-methanone] |
| 5.8 | Cc1cc(-c2cccc(C(F)(F)F)c2)c(-c2cnc(N)nc2)nc1C(=O)N1CCC(N2CCCC2)CC1 [Example 39, [6-(2-Amino-pyrimidin-5-yl)-3-methyl-5-(3-trifluoromethyl-phenyl)-pyridin-2-yl]-(4-pyrrolidin-1-yl-piperidin-1-yl)-methanone] |
| 3.9 | Cc1cc(-c2cccc(C(F)(F)F)c2)c(-c2ccc(N)nc2)nc1C(=O)N1CCC(N2CCCC2)CC1 [Example 40, [6′-Amino-5-methyl-3-(3-trifluoromethyl-phenyl)-[2,3′]bipyridinyl-6-yl]-(4-pyrrolidin-1-yl-piperidin-1-yl)-methanone] |
| 16 | Cc1cc(-c2cccc(C(F)(F)F)c2)c(-c2ccc(O)nc2)nc1C(=O)N1CCC(N2CCCC2)CC1 [Example 41, [6′-Hydroxy-5-methyl-3-(3-trifluoromethyl-phenyl)-[2,3′]bipyridinyl-6-yl]-(4-pyrrolidin-1-yl-piperidin-1-yl)-methanone] |
| 26 | Cc1cc(-c2cccc(C(F)(F)F)c2)c(C#N)nc1C(=O)N1CCC(N2CCCC2)CC1 [Example 42, 5-Methyl-6-(4-pyrrolidin-1-yl-piperidine-1-carbonyl)-3-(3-trifluoromethyl-phenyl)-pyridine-2-carbonitrile] |
| 25 | Cc1cc(-c2cccc(C(F)(F)F)c2)c(C(N)=O)nc1C(=O)N1CCC(N2CCCC2)CC1 [Example 43, 5-Methyl-6-(4-pyrrolidin-1-yl-piperidine-1-carbonyl)-3-(3-trifluoromethyl-phenyl)-pyridine-2-carboxylic acid amide] |
| 12 | COc1ncc(-c2nc(C(=O)N3CCC(N4CCCC4)CC3)c(C)cc2-c2cccc(C(F)(F)F)c2)cn1 [Example 44, [6-(2-Methoxy-pyrimidin-5-yl)-3-methyl-5-(3-trifluoromethyl-phenyl)-pyridin-2-yl]-(4-pyrrolidin-1-yl-piperidin-1-yl)-methanone] |
| 7.5 | COC(=O)c1nc(C(=O)N2CCC(N3CCCC3)CC2)c(C)cc1-c1cccc(C(F)(F)F)c1 [Example 45, 5-Methyl-6-(4-pyrrolidin-1-yl-piperidine-1-carbonyl)-3-(3-trifluoromethyl-phenyl)-pyridine-2-carboxylic acid methyl ester] |
| 12 | Cc1cc(-c2cccc(C(F)(F)F)c2)c(CO)nc1C(=O)N1CCC(N2CCCC2)CC1 [Example 46, [6-Hydroxymethyl-3-methyl-5-(3-trifluoromethyl-phenyl)-pyridin-2-yl]-(4-pyrrolidin-1-yl-piperidin-1-yl)-methanone] |
| 310 | Cc1cc(-c2cccc(C(F)(F)F)c2)c(C(=O)O)nc1C(=O)N1CCC(N2CCCC2)CC1 [Example 47, 5-Methyl-6-(4-pyrrolidin-1-yl-piperidine-1-carbonyl)-3-(3-trifluoromethyl-phenyl)-pyridine-2-carboxylic acid] |
| 12 | Cc1cc(-c2cccc(C(F)(F)F)c2)c(-c2cn[nH]c2)nc1C(=O)N1CCC(N2CCCC2)CC1 [Example 48, [3-Methyl-6-(1H-pyrazol-4-yl)-5-(3-trifluoromethyl-phenyl)-pyridin-2-yl]-(4-pyrrolidin-1-yl-piperidin-1-yl)-methanone] |
| 10 | Cc1cc(-c2cccc(C(F)(F)F)c2)c(-c2cc[nH]n2)nc1C(=O)N1CCC(N2CCCC2)CC1 [Example 49, [3-Methyl-6-(1H-pyrazol-3-yl)-5-(3-trifluoromethyl-phenyl)-pyridin-2-yl]-(4-pyrrolidin-1-yl-piperidin-1-yl)-methanone] |
| 18 | Cc1cc(-c2cccc(C(F)(F)F)c2)c(-c2cnn(C)c2)nc1C(=O)N1CCC(N2CCCC2)CC1 [Example 50, [3-Methyl-6-(1-methyl-1H-pyrazol-4-yl)-5-(3-trifluoromethyl-phenyl)-pyridin-2-yl]-(4-pyrrolidin-1-yl-piperidin-1-yl)-methanone] |
| 5.5 | Cc1cc(-c2cccc(C(F)(F)F)c2)c(-c2cnccn2)nc1C(=O)N1CCC(N2CCCC2)CC1 [Example 51, [3-Methyl-6-pyrazin-2-yl-5-(3-trifluoromethyl-phenyl)-pyridin-2-yl]-(4-pyrrolidin-1-yl-piperidin-1-yl)-methanone] |
| 15 | Cc1cc(-c2cccc(C(F)(F)F)c2)c(-c2ccnn2C)nc1C(=O)N1CCC(N2CCCC2)CC1 [Example 53, [3-Methyl-6-(2-methyl-2H-pyrazol-3-yl)-5-(3-trifluoromethyl-phenyl)-pyridin-2-yl]-(4-pyrrolidin-1-yl-piperidin-1-yl)-methanone] |
| 120 | Cc1cc(-c2cccc(C(F)(F)F)c2)c(-c2cnc(O)nc2O)nc1C(=O)N1CCC(N2CCCC2)CC1 [Example 54, [6-(2,4-Dihydroxy-pyrimidin-5-yl)-3-methyl-5-(3-trifluoromethyl-phenyl)-pyridin-2-yl]-(4-pyrrolidin-1-yl-piperidin-1-yl)-methanone] |
| 130 | Cc1cc(-c2cccc(C(F)(F)F)c2)c(C(=O)NCCO)nc1C(=O)N1CCC(N2CCCC2)CC1 [Example 55, 5-Methyl-6-(4-pyrrolidin-1-yl-piperidine-1-carbonyl)-3-(3-trifluoromethyl-phenyl)-pyridine-2-carboxylic acid (2-hydroxy-ethyl)-amide] |
| 13 | Cc1cc(-c2cccc(C(F)(F)F)c2)c(C(=O)Nc2cccnc2)nc1C(=O)N1CCC(N2CCCC2)CC1 [Example 56, 5-Methyl-6-(4-pyrrolidin-1-yl-piperidine-1-carbonyl)-3-(3-trifluoromethyl-phenyl)-pyridine-2-carboxylic acid pyridin-3-ylamide] |
| 210 | Cc1cc(-c2cccc(C(F)(F)F)c2)c(C(=O)NC2CCN(C(=O)OC(C)(C)C)CC2)nc1C(=O)N1CCC(N2CCCC2)CC1 [Example 57, 4-{[5-Methyl-6-(4-pyrrolidin-1-yl-piperidine-1-carbonyl)-3-(3-trifluoromethyl-phenyl)-pyridine-2-carbonyl]-amino}-piperidine-1-carboxylic acid tert-butyl ester] |
